Laboratory results taken from ChEMBL document CHEMBL3045642, “Synthesis of biologically active drimanes and homodrimanes from ()-sclareol” (Tetrahedron, 1995).
≈ marks a conversion by molar mass, not a printed value.

Legend:
[1] = system: Spodoptera littoralis; assay: Antifeedant activity against Spodoptera littoralis at 100 ppm; format: functional
[2] = system: Spodoptera littoralis; assay: Antifeedant activity against Spodoptera littoralis at 10 ppm; format: functional
[3] = system: Staphylococcus aureus; assay: Antibacterial activity against Staphylococcus aureus ATCC 8 after 24 hr; format: functional; conditions: ATCC 8, 24 h
[4] = system: A549; assay: Cytotoxicity against Homo sapiens (human) A549 cells; format: functional, cell-based
[5] = system: SK-MEL-28; assay: Cytotoxicity against Homo sapiens (human) SK-MEL-28 cells; format: functional, cell-based
[6] = system: Candida albicans; assay: Antifungal activity against Candida albicans CECT 1394 after 48 hr; format: functional; conditions: CECT 1394, 48 h
[7] = system: Spodoptera littoralis; assay: Antifeedant activity against Spodoptera littoralis; format: functional, organism-based
[8] = system: Proteus; assay: Antibacterial activity against Proteus after 24 hr; format: functional
[9] = system: Salmonella typhimurium; assay: Antibacterial activity against Salmonella enterica subsp. enterica serovar Typhimurium after 24 hr; format: functional
[10] = system: HT-29; assay: Cytotoxicity against Homo sapiens (human) HT-29 cells; format: functional, cell-based
[11] = system: Bacillus subtilis; assay: Antibacterial activity against Bacillus subtilis CECT 397 after 24 hr; format: functional; conditions: CECT 397, 24 h
[12] = system: P388; assay: Cytotoxicity against […] cells; format: functional, cell-based; conditions: Mus musculus
[13] = system: Enterococcus faecalis; assay: Antibacterial activity against Enterococcus faecalis OGIX after 24 hr; format: functional
[14] = system: Pseudomonas aeruginosa; assay: Antibacterial activity against Pseudomonas aeruginosa after 24 hr; format: functional
[15] = system: Cryptococcus neoformans; assay: Antifungal activity against Cryptococcus neoformans CECT 1075 after 48 hr; format: functional; conditions: CECT 1075, 48 h
[16] = system: Saccharomyces cerevisiae; assay: Antifungal activity against Saccharomyces cerevisiae S3 after 48 hr; format: functional; conditions: S3, 48 h

| SMILES | AFI [1] | AFI [2] | MIC [3] | IC50 [4] | IC50 [5] | MIC [6] | Activity [7] | MIC [8] | MIC [9] | IC50 [10] | MIC [11] | IC50 [12] | MIC [13] | MIC [14] | MIC [15] | MIC [16] |
| --- | --- | --- | --- | --- | --- | --- | --- | --- | --- | --- | --- | --- | --- | --- | --- | --- |
| C=C1C(=O)C[C@H]2C(C)(C)CCC[C@]2(C)[C@H]1C=O | 18.5% | 40.2% |  |  |  |  |  |  |  |  |  |  |  |  |  |  |
| CC1(C)CCC[C@]2(C)[C@@H](CC=O)C(C=O)=CC[C@@H]12 | 51.7% | -17.9% | 100 µg/mL (≈ 403 µM) | 2.5 µg/mL (≈ 10.1 µM) | 5 µg/mL (≈ 20.1 µM) | > 100 µg/mL | Dose-dependent effect | > 100 µg/mL | > 100 µg/mL | 5 µg/mL (≈ 20.1 µM) | 100 µg/mL (≈ 403 µM) | 2.5 µg/mL (≈ 10.1 µM) | > 100 µg/mL | 100 µg/mL (≈ 403 µM) | > 100 µg/mL | 100 µg/mL (≈ 403 µM) |
| C=C1C(=O)C[C@H]2C(C)(C)CCC[C@]2(C)[C@H]1CC=O | 43.7% | -10% | > 100 µg/mL | 1.2 µg/mL (≈ 4.83 µM) | 2.5 µg/mL (≈ 10.1 µM) | > 100 µg/mL | Dose-dependent effect | > 100 µg/mL | > 100 µg/mL | 2.5 µg/mL (≈ 10.1 µM) | > 100 µg/mL | 1.2 µg/mL (≈ 4.83 µM) | > 100 µg/mL | 100 µg/mL (≈ 403 µM) | > 100 µg/mL | > 100 µg/mL |
| CC1(C)CCC[C@]2(C)[C@@H](C=O)C(C=O)=CC[C@@H]12 [POLYGODIAL] | 7.4% | 24.9% | > 100 µg/mL |  | 2.5 µg/mL (≈ 10.7 µM) | > 100 µg/mL |  | > 100 µg/mL | > 100 µg/mL |  | > 100 µg/mL |  | > 100 µg/mL | > 100 µg/mL | > 100 µg/mL | 100 µg/mL (≈ 427 µM) |
